# Experiments:
# [1] = system: nontypeable Haemophilus influenzae; conditions: sialic acid 10 uM in plates, inhibitor 0.01-10 μM
# Experimental: Assay: Sialic acid 10 uM was incorporated into Brain Heart Infusion plates containing NAD and Hemin. The inhibitor was also added at 0.01 μM, 0.1 μM, 1 μM and 10 μM concentrations. Control plates were simultaneously prepared which lacked inhibitor. Results obtained from these plates represented the 100% sialic acid incorporation The inhibition assay was performed by plating 10^7 nontypeable Haemophilus influenzae onto each plate and allowed them to grow overnight in 5% CO2 at 37° C. After 16 hours, organisms were collected from the plate and separately diluted in distilled water to a density of 0.1 absorbance at 600 nm.
# Analysis: These organisms were analyzed for sialic acid incorporation onto the surface of the organism. To accomplish this, one hundred microliters was placed in a microtiter well and allowed to dry overnight in a 37° C. dry incubator. The next day the plates were washed in a microtiter washer and 100 microliters of antibody 3F11 in TBS Tween-20 was placed in each well. Monoclonal antibody 3F11 binds the lactosamine epitope to which the sialic acid is attached. If sialic acid is present, 3F11 will not bind. If sialic acid is absent, 3F11 binds. The plates were then allowed to set at 37° C. in a moist chamber for two hours. The plates were washed and 100 microliters of a mouse anti-IgM phosphatase conjugate was added to each well. The plates was allowed to set in a 37° C. incubator for one hour. The plate was washed, and 100 microliters p-nitrophenol-phosphate was added to each well. The plate was allowed to set for 1 hour and the color reaction was read in a microtiter plate reader at an absorbance of 405 nm.
# H. influenzae [2] = test: Inhibition of sialylation of LOS; type: cell-based; conditions: found by the inventors
# [3] = system: influenza A neuraminidase; conditions: literature statement; cited from earlier work
# SiaP [4] = target: T1, SiaP (Haemophilus influenzae, UniProt P44542); test: Biacore surface plasmon resonance, sialic acid binding to SiaP on CM5 sensor chip; parameters: species or system H. influenzae; conditions: for evidence of binding to SiaP: concentrations as high as 100 mM
# T1 construct: made in house; host or cells: E. coli (PET15 vector)
# Experimental: Biacore® Analysis: Surface plasmon resonance analysis was performed to measure the affinity of binding of sialic acid to SiaP. These studies were performed on a Biacore® instrument using the CM5 sensor chip. SiaP was bound to the chip and increasing concentrations of sialic acid were introduced into the instrument. […] Increasing concentration of sialic acid up to 50 mM show minimal increase in binding. Based on the calculations from this analysis, an association constant of 1.7×10^7 M was calculated.
# siaT = siaT (Haemophilus influenzae, UniProt P44542); test: Biacore analysis of Neu5Ac binding to siaT; parameters: species or system H. influenzae; conditions: for binding to siaT: concentrations as high as 200 mM; for binding to siaP (summary statement): restates the Example 3 binding studies
# Excerpt: In one embodiment, one can use the Biacore® screening method for molecules that bind to SiaT. Briefly, one uses a Biacore® instrument to measure bimolecular binding, establish a high throughput system to search for molecules which bind to SiaT or SiaP. SiaT expressing a His tag is bound to a sensor NTA chip in the Biacore® instrument. The Biacore® instrument measures binding events on the sensor chip surface, so that the interactant attached to the surface determines the specificity of the analysis. Testing the specificity of an interaction involves simply asking whether different molecules can bind to the immobilized interactant. Binding gives an immediate change in the SPR signal, so that it is directly apparent whether an interaction takes place or not. As sample is passed over the sensor surface, the progress of binding directly reflects the rate at which the interaction occurs. Injection of sample is followed by buffer flow during which the response reflects the rate of dissociation of the complex on the surface. Kinetic rate constants for the binding and dissociation can be obtained by fitting the results to mathematical descriptions of interaction models. Binding affinities can be obtained either from rate constant measurements (the dissociation constant KD is the ratio of the rate constants kd/ka for a 1:1 interaction) or by measuring the steady state level of binding as a function of sample concentration. The rate of binding of an interactant to a given surface is a function of the interactant concentration, so that measurements with the Biacore® instrument can be used to determine concentration of a specific substance in pure solution or in complex mixtures. The selectivity, dynamic range and other assay performance characteristics are determined largely by the choice of binding molecule attached to the surface. Thus, one can rapidly screen large number of candidate molecules for binding to the SiaT and develop information about rate of binding and dissociation constants. Molecules that have a high binding affinity and dissociate poorly are examined as candidates for study of inhibition of ^3H-sialic acid uptake by nontypeable H. influenzae.
# The inventors performed Biacore® analysis of Neu5Ac binding to siaT (FIG. 19). […] Binding peaked at 22 mM and calculations estimated the kD of siaT for Neu5Ac to be 1.7×10^−8.
# SiaP [5] = target: T1, SiaP; test: Binding of 3H-labelled sialic acid to SiaP-Sepharose conjugate; parameters: species or system H. influenzae; conditions: LuxS-Sepharose and Sepharose-only controls
# Experimental: SiaP binds sialic acid. SiaP was overexpressed in a PET15 vector and purified to homogeneity from E. coli. It was then crosslinked to Sepharose® beads and the ability of the SiaP-Sepharose® conjugate to bind sialic acid was assessed using ^3H-labelled sialic acid. […] Non-specific binding was not observed in this system as evidenced by the LuxS-Sepharose® and Sepharose®-only controls (FIG. 26).
# His-tagged siaP = His-tagged siaP (Haemophilus influenzae, UniProt P44542); test: Binding of 3H-Neu5Ac to His-tagged siaP bound to a nickel affinity resin; parameters: species or system H. influenzae; conditions: three experiments; controls His-tagged luxS resin and resin without protein
# Excerpt: The inventors also determined whether ^3H-Neu5Ac would bind to His-tagged siaP bound to a nickel affinity resin. […] Two controls are included, the His-tagged luxS protein bound to a nickel affinity resin and nickel affinity with no protein bound to it.
# SiaP [6] = target: T1, SiaP; test: Isothermal titration calorimetry of SiaP with sialic acid; type: binding, H. influenzae; conditions: ITC
# Experimental: Calorimetry and Dynamic Light Scattering. Isothermal titration calorimetry (ITC) experiments were performed in order to determine the binding affinity of SiaP for sialic acid. […] Dynamic light scattering (DLS) experiments were performed to determine the hydrodynamic radius of SiaP with and without sialic acid. […] This was verified by two types of experiments. In the first experiment, excess sialic acid was incubated with SiaP for several hours before DLS experiments were performed. In the second, DLS was performed on protein taken from the calorimeter following an ITC experiment.
# H. influenzae [7] = conditions: Goon et al. PNAS 100, 3089-3094; cited from earlier work
# siaT, sequence (P44542 24-329): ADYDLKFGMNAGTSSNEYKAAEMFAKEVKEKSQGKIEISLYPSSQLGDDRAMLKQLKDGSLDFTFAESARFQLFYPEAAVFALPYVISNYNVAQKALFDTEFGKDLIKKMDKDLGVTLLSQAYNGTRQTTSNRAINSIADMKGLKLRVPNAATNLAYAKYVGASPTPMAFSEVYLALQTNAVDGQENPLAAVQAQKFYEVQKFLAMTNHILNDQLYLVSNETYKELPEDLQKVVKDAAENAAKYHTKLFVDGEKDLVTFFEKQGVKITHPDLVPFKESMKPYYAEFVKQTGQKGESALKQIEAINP
# T1 sequence (P44542 24-329): as above
# His-tagged siaP, sequence (P44542 24-329): as above
smiles,measurement,setting,value
CC(=O)N[C@H]1[C@H]([C@H](O)[C@H](O)CO)O[C@@](Oc2ccc3c(C)cc(=O)oc3c2)(C(=O)[O-])C[C@@H]1O.O.[Na+] [2′-(4-Methylumbelliferyl)-α-D-N-acetylneuraminic acid sodium salt hydrate],effect on Neu5Ac incorporation into H. influenzae,[1],did not have any effect
"CC(=O)N[C@H]1[C@H]([C@H](O)[C@H](O)CO)OC(O)(C(=O)O)C(F)[C@@H]1O (stereo partly drawn) [3-fluorosialic acid, 3-fluoro-N-acetylneuraminic acid]",reduction of sialic acid uptake,"[1]; NTHi strain 2019, versus no inhibitor",60%
same,inhibition of sialylation of LOS,H. influenzae [2],highly effective
same,inhibition of influenza A neuraminidase,[3],potent and specific inhibitors
"CC(=O)N[C@H]1[C@H]([C@H](O)[C@H](O)CO)OC(C(=O)O)=C[C@@H]1O [DDNA, N-acetyl-2,3-didehydro-2-deoxyneuraminic acid]",inhibition of influenza A neuraminidase,[3],potent and specific inhibitors
CC(=O)N[C@H]1C(O)O[C@H](CO)[C@@H](O)[C@@H]1O (stereo partly drawn) [N-acetylglucosamine],evidence of binding to SiaP,SiaP [4],no evidence of binding
CC(=O)N[C@@H]1C(O)O[C@H](CO)[C@@H](O)[C@@H]1O (stereo partly drawn) [N-acetylmannosamine],binding to siaT,siaT; Biacore,no binding
same,binding to siaP (summary statement),siaT,failed to bind
same,evidence of binding to SiaP,SiaP [4],no evidence of binding
"CC(=O)N[C@H]1[C@H]([C@H](O)[C@H](O)CO)OC(O)(C(=O)O)C[C@@H]1O (stereo partly drawn) [Neu5Ac, N-acetylneuraminic acid]",Neu5Ac concentration at which binding peaked,"siaT; Biacore, Neu5Ac 10 to 50 mM",22 mM
same,Kd,"siaT; Biacore, Neu5Ac 10 to 50 mM, estimated by calculation",17 nM
same,binding to siaP (summary statement),siaT,extremely high affinity
same,sialic acid concentration up to which association with SiaP increased,SiaP [4]; up to 50 mM minimal further increase,20 mM
same,binding of sialic acid by SiaP-Sepharose,SiaP [5],capable of binding sialic acid
same,binding of 3H-Neu5Ac to resin-bound protein,His-tagged siaP,bound only to the resin to which siaT was bound
same,n value calculated from the binding data,SiaP [6],always less than one
same,Kd,SiaP [6]; three independent experiments,130 nM
CC(=O)N[C@H]1[C@H]([C@H](O)[C@H](O)CO)OC(C(=O)O)=C[C@@H]1N=C(N)N [Relenza],effect on Neu5Ac incorporation into H. influenzae,[1],did not have any effect
same,inhibition of influenza A neuraminidase,[3],potent and specific inhibitors
CCCCCCCC(=O)N[C@H]1C([C@H](O)[C@H](O)CO)OC(O)(C(=O)O)C[C@H]1O (stereo partly drawn) [SiaOct],inhibition of LOS sialylation,H. influenzae [7],inhibitor of LOS sialylation
CCOC(=O)C1=C[C@@H](OC(CC)CC)[C@H](NC(C)=O)[C@@H](N)C1 [Tamiflu],effect on Neu5Ac incorporation into H. influenzae,[1],did not have any effect
same,inhibition of influenza A neuraminidase,[3],potent and specific inhibitors
O=C(CO)[C@@H](O)[C@H](O)[C@H](O)CO [fructose],binding to siaT,siaT; Biacore,no binding
C[C@H](O)[C@@H](O)[C@@H](O)[C@H](O)C=O [fucose],binding to siaP (summary statement),siaT,failed to bind
O=C[C@H](O)[C@@H](O)[C@@H](O)[C@H](O)CO [galactose],binding to siaT,siaT; Biacore,no binding
same,binding to siaP (summary statement),siaT,failed to bind
same,evidence of binding to SiaP,SiaP [4],no evidence of binding
N[C@H]1C(O)O[C@H](CO)[C@@H](O)[C@@H]1O (stereo partly drawn) [glucosamine],evidence of binding to SiaP,SiaP [4],no evidence of binding
O=C[C@H](O)[C@@H](O)[C@H](O)CO [xylose],binding to siaT,siaT; Biacore,no binding
same,binding to siaP (summary statement),siaT,failed to bind
